Assay results published in paper PMC6700801, “Caffeic acid phenethyl ester suppresses androgen receptor signaling and stability via inhibition of phosphorylation on Ser81 and Ser213” (Cell Communication and Signaling : CCS, 2019).

Target: T1, Androgen receptor (AR) (Rattus norvegicus, UniProt P15207)
T1 sequence (P15207 646-902 limits assumed): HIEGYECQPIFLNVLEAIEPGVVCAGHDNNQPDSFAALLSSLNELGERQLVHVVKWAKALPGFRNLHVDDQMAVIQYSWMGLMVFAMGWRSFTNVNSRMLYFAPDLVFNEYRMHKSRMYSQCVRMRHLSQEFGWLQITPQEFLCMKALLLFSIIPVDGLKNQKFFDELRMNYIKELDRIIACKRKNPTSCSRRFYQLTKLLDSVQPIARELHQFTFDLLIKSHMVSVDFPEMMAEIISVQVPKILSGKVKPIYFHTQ
Experiment: fluorescence polarization competition assay (PolarScreen AR Competitor Assay kit); very weak
Assay type: binding

With O=C(/C=C/c1ccc(O)c(O)c1)OCCc1ccccc1 [Caffeic acid phenethyl ester] the IC50 was 132 µM.
